Experiments:
[1] = test system: entire face (precancerous lesions and normal, photodamaged skin); test: Daily application of a pea size aliquot of 5% imiquimod to the entire face of Patient B; type: in vivo, human; conditions: pea size aliquot of 5% imiquimod every day to the entire face
Experimental: In a further example of a method of the invention, Patient B is treated with a pea size aliquot of 5% imiquimod every day to the entire face. […] One skilled in the art is familiar with many methods and techniques for evaluating or monitoring changes in the skin. […] For example, changes in pigmentation, texture, and the presence of wrinkles or fine lines can all be monitored through visual assessment. In addition, a mexameter can be used to measure skin pigment, a tewameter and/or evaporometer can be used to measure water content, a laser doppler device can measure blood flow, and a visioscan or optical profilometer can measure surface texture, wrinkles, and/or roughness. Any one or any combination of these methods can be used, in particular, to measure, monitor, or detect changes in fine wrinkles, mottled hyperpigmentation, tactile roughness, lentigines, course or deep wrinkles, telangiectasia, skin laxity, keratinocytic atypia, melanocytic atypia, and/or dermal elastosis.

[2] = test system: Patient A skin; test: Daily topical application of a 5% imiquimod composition to Patient A skin, visual inspection; type: in vivo, human; conditions: after 8 weeks of daily application
Text: In a first example of a method of the invention, a 5% imiquimod composition is applied to Patient A skin.
One skilled in the art is familiar with many methods and techniques for evaluating or monitoring changes in the skin. […] For example, changes in pigmentation, texture, and the presence of wrinkles or fine lines can all be monitored through visual assessment. In addition, a mexameter can be used to measure skin pigment, a tewameter and/or evaporometer can be used to measure water content, a laser doppler device can measure blood flow, and a visioscan or optical profilometer can measure surface texture, wrinkles, and/or roughness. Any one or any combination of these methods can be used, in particular, to measure, monitor, or detect changes in fine wrinkles, mottled hyperpigmentation, tactile roughness, lentigines, course or deep wrinkles, telangiectasia, skin laxity, keratinocytic atypia, melanocytic atypia, and/or dermal elastosis. Thus, the methods and composition of the invention can be used to treat and/or to evaluate possible treatment compositions where any one of these diseases or conditions are present or may be present.

Q: Which “appearance of non-precancerous skin (normal, photodamaged skin)” value [1] does the source give for `CC(C)Cn1cnc2c(N)nc3ccccc3c21` [imiquimod, 1-isobutyl-1H-imidazo [4,5,-C] quinolin-4-amine] here?
A: looks smoother, with more regular pigmentation, and improvement of the fine wrinkles

Q: What about the “irritation of non-precancerous skin (normal, photodamaged skin)” value [1] of the same molecule?
A: does not become irritated

Q: And the “reaction of areas of the skin with precancerous lesions on the nose” value ([1]; biopsy shows BCC in precancerous regions)?
A: became very red, eroded and irritated

Q: What about the “appearance of clinical wrinkles by visual inspection” value [2] of the same molecule?
A: decreases

Q: What about the general skin appearance [2] of the same molecule?
A: generally improved and healthier appearance

Q: What about the most noticeable improvement [2] of the same molecule?
A: pigmentation and texture

— US7521459B2, “Method for treating damaged skin” (Metabeauty Inc., priority 2003, dated 2009)
